In patent US4374147A, “13-Oxo-monic acid esters useful as antibacterial and antimycoplasmal agents” (Beecham Group Limited, priority 1980, dated 1983):
Values after ≈ are worked out from the molar mass of the structure shown. Where two headings read alike, the source gives them in different places.

What was measured:
Assay type in all cases: cell-based
Staph.aureus Russell = experiment: MIC by serial dilution in nutrient agar (human bacteria, Table 1); details: Staphylococcus aureus; Staph.aureus Russell; nutrient agar, 5% "chocolated" horse blood; read-out: MIC
Strep.pyogenes C 2761 = experiment: as above; details: Streptococcus pyogenes, C2761, 5% "chocolated" horse blood
Staph.aureus Oxford [1] = experiment: as above; details: Staphylococcus aureus; Staph.aureus Oxford; nutrient agar, 5% "chocolated" horse blood; read-out: MIC
[2] = test system: Haemophilus influenzae Wy21; experiment: as above; details: 5% "chocolated" horse blood
E.coli ESS = experiment: as above; details: Escherichia coli, 5% "chocolated" horse blood
Bacillus subtilis 6633 = experiment: as above; details: 5% "chocolated" horse blood
Ps. aeruginosa 10662 = experiment: as above; details: Pseudomonas aeruginosa, 5% "chocolated" horse blood
[3] = test system: Haemophilus influenzae Q1; experiment: as above
[4] = test system: Pasteurella multocida 1633; experiment: as above; details: Pasteurella multocida, 1633
[5] = test system: Neisseria flavesceus 8263; experiment: MIC by serial dilution in nutrient agar (human bacteria, Table 1, footnote a)
Source text: | ^ a Neisseria flavesceus 8263

Strep.pyogenes B 2788 = experiment: MIC by serial dilution in nutrient agar (human bacteria, Table 1); details: Streptococcus pyogenes, B2788, 5% "chocolated" horse blood
Strep.faecalis I = experiment: as above; details: Enterococcus faecalis, 5% "chocolated" horse blood
M.pneumoniae 427a = experiment: Anti-mycoplasmal MIC by serial dilution in Friis broth (Table 3); details: Mycoplasmoides pneumoniae, read-out: in vitro MIC
Source text: (§1) *Determined by serial dilution in Friis broth (Friis N.F. 1975. Nord. Vet
(§2) Med. 27, 337) in microtiter plates using a modification of the metabolite
(§3) inhibition test (TaylorRobinson D. 1967. Postgrad. Med. J., 43, suppl.

[6] = test system: M.suipneumoniae J2206/183b; experiment: as above; details: Mesomycoplasma hyopneumoniae, read-out: in vitro MIC
Source text: as §1, §2, §3

M.dispar NCTC 10125 = experiment: as above; details: read-out: in vitro MIC
Source text: as §1, §2, §3

[7] = test system: Corynebacterium xerosis 9755; experiment: MIC by serial dilution in nutrient agar (human bacteria, Table 1); details: 5% "chocolated" horse blood
Strep.pyogenes A 64/848 = experiment: as above; details: Streptococcus pyogenes, A64/848, 5% "chocolated" horse blood
K. aerogenes A = experiment: as above; details: Klebsiella aerogenes, 5% "chocolated" horse blood
Sarcina lutea 8340 = experiment: as above; details: Micrococcus luteus, 5% "chocolated" horse blood
E.coli NCTC 10418 [8] = experiment: as above; details: Escherichia coli, NCTC10418, 5% "chocolated" horse blood
P. mirabilis 889 = experiment: as above; details: Proteus mirabilis, 5% "chocolated" horse blood
[9] = test system: Neisseria catarrhalis 1502; experiment: as above; details: 5% "chocolated" horse blood
Strep.pneumoniae CN33 = experiment: as above; details: Streptococcus pneumoniae, 5% "chocolated" horse blood
Strep.dysgalactiae SPD1 = experiment: MIC by agar dilution (veterinary bacteria, Table 2); details: Streptococcus dysgalactiae, diagnostic sensitivity test agar, 24 hours, 37° C.
Procedure: (§4) The MIC values were determined by agar dilution using diagnostic sensitivity test agar (Oxoid) using a multipoint inoculator delivering 0.001 ml of an inoculum adjusted to give 10^7 -10^8 organisms per ml and read after 24 hours incubation at 37° C.

[10] = test system: Staph.aureus 152 (pen sens); experiment: as above; details: Staphylococcus aureus, diagnostic sensitivity test agar, 24 hours, 37° C.
Procedure: as §4

Past.multocida PA2 = experiment: as above; details: Pasteurella multocida, diagnostic sensitivity test agar, 24 hours, 37° C.
Procedure: as §4

Bord.bronchiseptica BO8 = experiment: as above; details: Bordetella bronchiseptica, diagnostic sensitivity test agar, 24 hours, 37° C.
Procedure: as §4

Past.multocida PA1 = experiment: as above; details: Pasteurella multocida, diagnostic sensitivity test agar, 24 hours, 37° C.
Procedure: as §4

Strep.agalactiae SPA1 = experiment: as above; details: Streptococcus agalactiae, diagnostic sensitivity test agar, 24 hours, 37° C.
Procedure: as §4

B. subtilis ATCC 6633 = experiment: as above; details: Bacillus subtilis, ATCC6633, diagnostic sensitivity test agar, 24 hours, 37° C.
Procedure: as §4

Strep.uberis SPU1 = experiment: as above; details: Streptococcus uberis, diagnostic sensitivity test agar, 24 hours, 37° C.
Procedure: as §4

[11] = test system: Strep.suis (group D) SPS11; experiment: as above; details: Streptococcus suis, diagnostic sensitivity test agar, 24 hours, 37° C.
Procedure: as §4

E.coli NCTC 10418 [12] = experiment: as above; details: Escherichia coli, NCTC10418, diagnostic sensitivity test agar, 24 hours, 37° C.
Procedure: as §4

Past.haemolytica PA5 = experiment: as above; details: Mannheimia haemolytica, diagnostic sensitivity test agar, 24 hours, 37° C.
Procedure: as §4

[13] = test system: Staph.aureus B4 (pen resis); experiment: as above; details: Staphylococcus aureus, diagnostic sensitivity test agar, 24 hours, 37° C.
Procedure: as §4

Bord.bronchiseptica BO9 = experiment: as above; details: Bordetella bronchiseptica, diagnostic sensitivity test agar, 24 hours, 37° C.
Procedure: as §4

Staph.aureus Oxford [14] = experiment: as above; details: Staphylococcus aureus, diagnostic sensitivity test agar, 24 hours, 37° C.
Procedure: as §4

[15] = test system: Erysipelothrix rhusiopathiae NCTC 8163; experiment: as above; details: NCTC8163, diagnostic sensitivity test agar, 24 hours, 37° C.
Procedure: as §4

E.coli E1 = experiment: as above; details: Escherichia coli, diagnostic sensitivity test agar, 24 hours, 37° C.
Procedure: as §4

[16] = test system: Corynebacterium pyogenes CY1; experiment: as above; details: Trueperella pyogenes, diagnostic sensitivity test agar, 24 hours, 37° C.
Procedure: as §4

S.typhimurium S18 = experiment: as above; details: Salmonella enterica, diagnostic sensitivity test agar, 24 hours, 37° C.
Procedure: as §4

S.dublin S7 = experiment: as above; details: Salmonella enterica, diagnostic sensitivity test agar, 24 hours, 37° C.
Procedure: as §4

COC(=O)CCCCCCCCOC(=O)/C=C(\C)CC1OCC(CC2OC2C(C)C(C)=O)C(O)C1O (stereo not shown) [Example 1, Methyl 13-Oxopseudomonate A]
MIC (Staph.aureus Russell): 2 µg/mL (≈ 3.9 µM)
MIC (Strep.pyogenes C 2761): 2 µg/mL (≈ 3.9 µM)
MIC (Staph.aureus Oxford [1]): 0.5 µg/mL (≈ 0.975 µM)
MIC [2]: 0.5 µg/mL (≈ 0.975 µM)
MIC (E.coli ESS): 2 µg/mL (≈ 3.9 µM)
MIC (Bacillus subtilis 6633): 0.5 µg/mL (≈ 0.975 µM)
MIC (Ps. aeruginosa 10662): > 200 µg/mL
MIC ([3]; Haemophilus influenzae Q1, nutrient agar, 5% "chocolated" horse blood, read-out: MIC): 0.5 µg/mL (≈ 0.975 µM)
MIC [4]: 1 µg/mL (≈ 1.95 µM)
MIC [5]: 1 µg/mL (≈ 1.95 µM)
MIC (Strep.pyogenes B 2788): 10 µg/mL (≈ 19.5 µM)
MIC (Strep.faecalis I): > 200 µg/mL
MIC (M.pneumoniae 427a): 250 µg/mL (≈ 488 µM)
MIC [6]: 62.5 µg/mL (≈ 122 µM)
MIC (M.dispar NCTC 10125): 0.5 µg/mL (≈ 0.975 µM)
MIC [7]: > 200 µg/mL
MIC (Strep.pyogenes A 64/848): 0.5 µg/mL (≈ 0.975 µM)
MIC (K. aerogenes A): > 200 µg/mL
MIC (Sarcina lutea 8340): > 200 µg/mL
MIC (E.coli NCTC 10418 [8]): > 200 µg/mL
MIC (P. mirabilis 889): > 200 µg/mL

CC(=O)C(C)C1OC1CC1COC(C/C(C)=C/C(=O)OCCCCCCCCC(=O)O)C(O)C1O (stereo not shown) [Example 4, Sodium 13--Oxopseudomonate A]
MIC (Staph.aureus Russell): 0.5 µg/mL
MIC [9]: 0.5 µg/mL
MIC (Strep.pyogenes C 2761): 0.5 µg/mL
MIC (Staph.aureus Oxford [1]): 0.2 µg/mL
MIC [2]: 0.1 µg/mL
MIC (E.coli ESS): 2.5 µg/mL
MIC (Bacillus subtilis 6633): 0.1 µg/mL
MIC (Ps. aeruginosa 10662): > 100 µg/mL
MIC ([3]; Haemophilus influenzae, Q1): 0.05 µg/mL
MIC (Strep.pneumoniae CN33): 0.5 µg/mL
MIC (Strep.pyogenes B 2788): 1 µg/mL
MIC (Strep.faecalis I): > 100 µg/mL
MIC (M.pneumoniae 427a): 250 µg/mL
MIC [6]: 31.2 µg/mL
MIC (M.dispar NCTC 10125): 3.9 µg/mL
MIC [7]: > 100 µg/mL
MIC (Strep.pyogenes A 64/848): 1 µg/mL
MIC (K. aerogenes A): > 100 µg/mL
MIC (Sarcina lutea 8340): > 100 µg/mL
MIC (E.coli NCTC 10418 [8]): > 100 µg/mL
MIC (P. mirabilis 889): > 100 µg/mL
MIC (Strep.dysgalactiae SPD1): 1.25 µg/mL
MIC [10]: 1.25 µg/mL
MIC (Past.multocida PA2): 0.625 µg/mL
MIC (Bord.bronchiseptica BO8): 80 µg/mL
MIC (Past.multocida PA1): 0.625 µg/mL
MIC (Strep.agalactiae SPA1): 10 µg/mL
MIC (B. subtilis ATCC 6633): > 80 µg/mL
MIC (Strep.uberis SPU1): 0.312 µg/mL
MIC [11]: 20 µg/mL
MIC (E.coli NCTC 10418 [12]): > 80 µg/mL
MIC (Past.haemolytica PA5): 10 µg/mL
MIC [13]: 1.25 µg/mL
MIC (Bord.bronchiseptica BO9): 80 µg/mL
MIC (Staph.aureus Oxford [14]): 1.25 µg/mL
MIC [15]: > 80 µg/mL
MIC (E.coli E1): > 80 µg/mL
MIC [16]: > 80 µg/mL
MIC (S.typhimurium S18): > 80 µg/mL
MIC (S.dublin S7): > 80 µg/mL
